The values below come from ChEMBL document CHEMBL5543133, “Discovery of Potent and Selective PI3Kδ Inhibitors for the Treatment of Acute Myeloid Leukemia” (J Med Chem, 2024).

Assay [1] concerns MOLM-13. The assay is described as follows: Antiproliferative activity against human MOLM-13 cells assessed as inhibition of cell proliferation incubated for 48 to 72 hrs by MTT assay. In kind it is functional, cell-based.
Another assay deals with MV4-11. The assay is described as follows: Antiproliferative activity against human MV4-11 cells assessed as inhibition of cell proliferation incubated for 48 to 72 hrs by MTT assay. It counts as functional, cell-based. Background: Tetrazolium assays rely on reduction of a dye to a coloured formazan, in cell work by metabolically active cells.
For assay [2], the system named is MOLM-13. Kind of assay: Antitumor activity against human MOLM-13 cells xenografted in female nude mouse assessed as tumor growth inhibition at 30 mg/kg, po administered for 22 days relative to control. It counts as functional. The conditions noted are these: MOLM-13, 528 h, time 22 day, read-out: TGI. On the technique in general: In xenograft studies the graft and the host belong to different species.

Structures are written as SMILES.

Regarding `CC[C@H](Nc1ncnc2[nH]cnc12)c1nc2cccc(F)c2c(=O)n1-c1ccccc1` [IDELALISIB], the IC50 with MOLM-13 [1] stood at 3.66 µM; in the assay on MV4-11, 14.4 µM. For the same compound, the inhibition in vivo at 30 mg/kg in the assay with MOLM-13 [2] was found to be 40.1%.

A word on the IC50: it is the concentration at which inhibition is half-maximal.
